From patent publication US4245106A, “Process for the preparation of 1-alkyl-3-aryl-4-pyrazolecarboxylates” (Monsanto Company, priority 1979, dated 1981)

What was measured:
Format in all cases: in vivo
Settings in all cases: *11.2 Kg/Ha; observed approximately 14 days after treatment
[1] = test system: Cocklebur; assay: pre-emergent herbicidal activity test
Method: (§1) Table II summarizes results of tests conducted to determine the pre-emergent as well as the post-emergent herbicidal activity of the compounds. The pre-emergent test was conducted as follows:
(§2) A good grade of top soil was placed in aluminum pans and compacted to a depth of three-eighths to one-half inch from the top of the pan. On the top of the soil was placed a predetermined number of seeds or vegetative propagules of various plant species. The soil required to level fill the pans after seeding or adding vegetative propagules was weighed into a pan. A known amount of the active ingredient applied in a solvent or as a wettable powder and the soil were thoroughly mixed, and used as a cover layer for prepared pans. After treatment the pans were moved into a greenhouse bench where they were watered from below as needed to give adequate moisture for germination and growth.
(§3) A herbicial rating code was used to signify the extent of phytotoxicity of each species. The rating are defined as follows: […]

[2] = test system: Barnyard grass; assay: pre-emergent herbicidal activity test
Method: as §1, §2, §3

[3] = test system: Johnsongrass; assay: pre-emergent herbicidal activity test
Method: as §1, §2, §3

[4] = test system: Morningglory; assay: pre-emergent herbicidal activity test
Method: as §1, §2, §3

[5] = test system: Lambsquarter; assay: pre-emergent herbicidal activity test
Method: as §1, §2, §3

[6] = test system: Canada Thistle; assay: pre-emergent herbicidal activity test
Method: as §1, §2, §3

[7] = test system: Quackgrass; assay: pre-emergent herbicidal activity test
Method: as §1, §2, §3

[8] = test system: Smartweed; assay: pre-emergent herbicidal activity test
Method: as §1, §2, §3

[9] = test system: Nutsedge; assay: pre-emergent herbicidal activity test
Method: as §1, §2, §3

[10] = test system: Bromus tectorum; assay: pre-emergent herbicidal activity test
Method: as §1, §2, §3

[11] = test system: Velvetleaf; assay: pre-emergent herbicidal activity test
Method: as §1, §2, §3

[12] = test system: Cocklebur; assay: post-emergent herbicidal activity test
Method: (§4) The post-emergent tests were conducted as follows. The active ingredients are applied in spray form to two or three-week old specimens of various plant species. The spray, a solution or wettable powder suspension containing the appropriate rate of active ingredient to give the desired test rate and a surfactant, is applied to the plants. The treated plants are placed in a greenhouse and unless otherwise noted approximately four weeks later the effects are observed and recorded.

[13] = test system: Barnyard grass; assay: post-emergent herbicidal activity test
Method: as §4

[14] = test system: Johnsongrass; assay: post-emergent herbicidal activity test
Method: as §4

[15] = test system: Morningglory; assay: post-emergent herbicidal activity test
Method: as §4

[16] = test system: Lambsquarter; assay: post-emergent herbicidal activity test
Method: as §4

[17] = test system: Canada Thistle; assay: post-emergent herbicidal activity test
Method: as §4

[18] = test system: Quackgrass; assay: post-emergent herbicidal activity test
Method: as §4

[19] = test system: Smartweed; assay: post-emergent herbicidal activity test
Method: as §4

[20] = test system: Nutsedge; assay: post-emergent herbicidal activity test
Method: as §4

[21] = test system: Bromus tectorum; assay: post-emergent herbicidal activity test
Method: as §4

[22] = test system: Velvetleaf; assay: post-emergent herbicidal activity test
Method: as §4
Also: ranges in brackets are in %.

CCCCCCOC(=O)c1cn(C)nc1-c1cccc(C(F)(F)F)c1 [Example 21]
Pre-Emergent herbicidal rating, B Cocklebur [1]: 0 (0-24) | Pre-Emergent herbicidal rating, K Barnyard grass [2]: 1 (25-49) | Pre-Emergent herbicidal rating, I Johnsongrass [3]: 0 (0-24) | Pre-Emergent herbicidal rating, D Morningglory [4]: 0 (0-24) | Pre-Emergent herbicidal rating, E Lambsquarter [5]: 0 (0-24) | Pre-Emergent herbicidal rating, A Canada Thistle [6]: 0 (0-24) | Pre-Emergent herbicidal rating, H Quackgrass [7]: 0 (0-24) | Pre-Emergent herbicidal rating, F Smartweed [8]: 0 (0-24) | Pre-Emergent herbicidal rating, G Nutsedge [9]: 0 (0-24) | Pre-Emergent herbicidal rating, J Bromus tectorum [10]: 0 (0-24) | Pre-Emergent herbicidal rating, C Velvetleaf [11]: 0 (0-24) | Post-Emergent herbicidal rating, B Cocklebur [12]: 1 (25-49) | Post-Emergent herbicidal rating, K Barnyard grass [13]: 1 (25-49) | Post-Emergent herbicidal rating, I Johnsongrass [14]: 1 (25-49) | Post-Emergent herbicidal rating, D Morningglory [15]: 1 (25-49) | Post-Emergent herbicidal rating, E Lambsquarter [16]: 2 (50-74) | Post-Emergent herbicidal rating, A Canada Thistle [17]: 1 (25-49) | Post-Emergent herbicidal rating, H Quackgrass [18]: 0 (0-24) | Post-Emergent herbicidal rating, F Smartweed [19]: 1 (25-49) | Post-Emergent herbicidal rating, G Nutsedge [20]: 0 (0-24) | Post-Emergent herbicidal rating, J Bromus tectorum [21]: 0 (0-24) | Post-Emergent herbicidal rating, C Velvetleaf [22]: 1 (25-49)
